pIC50: −log10 of the molar value.
Each compound was assayed against Adenosine kinase (Homo sapiens, UniProt P55263) (assay: Inhibition of recombinant human adenosine kinase).
Chain of Adenosine kinase (P55263 whole entry): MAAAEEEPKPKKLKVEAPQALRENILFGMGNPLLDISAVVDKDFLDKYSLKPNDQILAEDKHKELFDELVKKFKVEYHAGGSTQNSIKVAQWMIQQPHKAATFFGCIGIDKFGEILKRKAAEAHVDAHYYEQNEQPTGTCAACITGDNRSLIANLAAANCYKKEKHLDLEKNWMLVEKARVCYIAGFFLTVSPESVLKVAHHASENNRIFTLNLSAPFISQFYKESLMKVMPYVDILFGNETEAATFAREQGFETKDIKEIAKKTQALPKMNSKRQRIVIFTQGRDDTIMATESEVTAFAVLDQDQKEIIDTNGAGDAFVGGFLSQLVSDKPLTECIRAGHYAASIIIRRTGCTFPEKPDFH

Row | Structure (SMILES) | pIC50
1 | NC[C@H]1O[C@@H](n2cnc3c(N)ncnc32)[C@H](O)[C@@H]1O | 6.77
2 | CSc1cn([C@@H]2O[C@H](C)[C@@H](O)[C@H]2O)c2ncnc(N)c12 | 5.87
3 | [N-]=[N+]=NC[C@H]1O[C@@H](n2cc(I)c3c(N)ncnc32)[C@H](O)[C@@H]1O | 7.46
4 | CSc1cn([C@@H]2O[C@H](C)[C@@H](O)[C@H]2O)c2ncnc(Cl)c12 | 7.15
5 | CNc1ncnc2c1c(I)cn2[C@@H]1O[C@H](CO)[C@@H](O)[C@H]1O | 5.92
6 | COC[C@H]1O[C@@H](n2cc(I)c3c(N)ncnc32)[C@H](O)[C@@H]1O | 5.92
7 | NC[C@H]1O[C@@H](n2cc(I)c3c(N)ncnc32)[C@H](O)[C@@H]1O | 9.22
8 | OC[C@H]1O[C@@H](n2cc(I)c3c(Cl)ncnc32)[C@H](O)[C@@H]1O | 7.62
9 | C[C@H]1O[C@@H](n2cc(I)c3c(Cl)ncnc32)[C@H](O)[C@@H]1O | 8.52
10 | NC[C@H]1O[C@@H](n2cc(I)c3c(Cl)ncnc32)[C@H](O)[C@@H]1O | 10.00
11 | C[C@H]1O[C@@H](n2cc(I)c3c(SCc4ccccc4)ncnc32)[C@H](O)[C@@H]1O | 6.00
12 | C[C@H]1O[C@@H](n2cc(I)c3c(=S)[nH]cnc32)[C@H](O)[C@@H]1O | 5.19
13 | [N-]=[N+]=NC[C@H]1O[C@@H](n2cc(I)c3c(Cl)ncnc32)[C@H](O)[C@@H]1O | 8.05
14 | Nc1ncnc2c1c(Br)cn2[C@@H]1O[C@H](CO)[C@@H](O)[C@H]1O | 6.92
15 | CCCCSc1ncnc2c1c(I)cn2[C@@H]1O[C@H](C)[C@@H](O)[C@H]1O | 6.00
16 | CSc1ncnc2c1c(I)cn2[C@@H]1O[C@H](C)[C@@H](O)[C@H]1O | 7.35

Row | Structure (SMILES) | pIC50
17 | C[C@H]1O[C@@H](n2cc(I)c3c(SCc4ccc([N+](=O)[O-])cc4)ncnc32)[C@H](O)[C@@H]1O | 5.70
18 | C=CCSc1ncnc2c1c(I)cn2[C@@H]1O[C@H](C)[C@@H](O)[C@H]1O | 5.55
19 | CC[C@H]1O[C@@H](n2cc(Br)c3c(N)ncnc32)[C@H](O)[C@@H]1O | 6.30
20 | [N-]=[N+]=NC[C@H]1O[C@@H](n2cc(Br)c3c(N)ncnc32)[C@H](O)[C@@H]1O | 7.20
21 | CC[C@H]1O[C@@H](n2cc(I)c3c(N)ncnc32)[C@H](O)[C@@H]1O | 7.22
22 | C=C[C@H]1O[C@@H](n2cc(I)c3c(N)ncnc32)[C@H](O)[C@@H]1O | 7.00
23 | NC[C@H]1O[C@@H](n2ccc3c(N)ncnc32)[C@H](O)[C@@H]1O | 4.89
24 | C[C@H]1O[C@@H](n2cc(Br)c3c(Cl)ncnc32)[C@H](O)[C@@H]1O | 7.30
25 | Nc1ncnc2c1c(Cl)cn2[C@@H]1O[C@H](CO)[C@@H](O)[C@H]1O | 6.68
26 | [N-]=[N+]=NC[C@H]1O[C@@H](n2cc(Br)c3c(Cl)ncnc32)[C@H](O)[C@@H]1O | 7.00
27 | C[C@H]1O[C@@H](n2cc(C#N)c3c(N)ncnc32)[C@H](O)[C@@H]1O | 6.51
28 | Cc1cn([C@@H]2O[C@H](C)[C@@H](O)[C@H]2O)c2ncnc(Cl)c12 | 6.27
29 | NC[C@H]1O[C@@H](n2cc(Br)c3c(N)ncnc32)[C@H](O)[C@@H]1O | 9.70
30 | N#Cc1cn([C@@H]2O[C@H](CO)[C@@H](O)[C@H]2O)c2ncnc(N)c12 [TOYOCAMYCIN] | 6.51
31 | Nc1ncnc2c1ccn2[C@@H]1O[C@H](CO)[C@@H](O)[C@H]1O [TUBERCIDIN] | 5.00

Organism: Rattus norvegicus
Assay: Evaluated for antiseizure activity in rat maximal electric shock (MES) seizure model and represented as ED50.
Assay type: functional

Row | Structure (SMILES) | ED50
32 | NC[C@H]1O[C@@H](n2cc(I)c3c(N)ncnc32)[C@H](O)[C@@H]1O | 7.1 mg/kg
33 | C[C@H]1O[C@@H](n2cc(Br)c3c(N)ncnc32)[C@H](O)[C@@H]1O | < 3.7 mg/kg
34 | NC[C@H]1O[C@@H](n2cc(Br)c3c(N)ncnc32)[C@H](O)[C@@H]1O | 4.2 mg/kg
35 | C[C@H]1O[C@@H](n2cc(I)c3c(N)ncnc32)[C@H](O)[C@@H]1O [5-IODO,5'-DEOXYTUBERCIDIN] | 0.3 mg/kg
36 | Nc1ncnc2c1c(I)cn2[C@@H]1O[C@H](CO)[C@@H](O)[C@H]1O [IODOTUBERCIDIN] | 6 mg/kg
